The source of these data is patent US8404729B2, “Heterocyclic tetracyclic tetrahydrofuran derivatives” (Janssen Pharmaceutica, NV, priority 2005, dated 2013).

Each structure is given as a SMILES string.

The target of one test is T1, 5-HT2A receptors (Rattus norvegicus, UniProt P14842).
T1 construct: the tissue used is the frontal cortex of the rat; from tissue; host or cells: rat frontal cortex
In words: In vitro binding affinity for 5-HT2A receptor (3H-ketanserin radioligand binding). The following applies: frontal cortex of the rat, read-out: 5-HT2A (pIC50) (converted). The procedure: The interaction of the compounds of Formula (I) with 5-HT2A and 5-HT2C receptors was assessed in in vitro radioligand binding experiments. […] During the incubation, the radioligands bind to the receptor. When equilibrium of binding is reached, the receptor bound radioactivity is separated from the non-bound radioactivity, and the receptor bound activity is counted. The interaction of the test compounds with the receptors is assessed in competition binding experiments. Various concentrations of the test compound are added to the incubation mixture containing the tissue preparation and the radioligand. Binding of the radioligand will be inhibited by the test compound in proportion to its binding affinity and its concentration. The radioligand used for 5-HT2A binding affinity is ^3H-ketanserin and the tissue used is the frontal cortex of the rat. The radioligand used for 5-HT2c binding affinity is ^3H-mesulergine and the tissue used is the choroid plexus of the pig.

The next test concerns the target T2, 5-HT2C receptors (Sus scrofa, UniProt K7GSR7).
T2 construct: the tissue used is the choroid plexus of the pig; from tissue; host or cells: pig choroid plexus
T2 sequence (K7GSR7 1-457): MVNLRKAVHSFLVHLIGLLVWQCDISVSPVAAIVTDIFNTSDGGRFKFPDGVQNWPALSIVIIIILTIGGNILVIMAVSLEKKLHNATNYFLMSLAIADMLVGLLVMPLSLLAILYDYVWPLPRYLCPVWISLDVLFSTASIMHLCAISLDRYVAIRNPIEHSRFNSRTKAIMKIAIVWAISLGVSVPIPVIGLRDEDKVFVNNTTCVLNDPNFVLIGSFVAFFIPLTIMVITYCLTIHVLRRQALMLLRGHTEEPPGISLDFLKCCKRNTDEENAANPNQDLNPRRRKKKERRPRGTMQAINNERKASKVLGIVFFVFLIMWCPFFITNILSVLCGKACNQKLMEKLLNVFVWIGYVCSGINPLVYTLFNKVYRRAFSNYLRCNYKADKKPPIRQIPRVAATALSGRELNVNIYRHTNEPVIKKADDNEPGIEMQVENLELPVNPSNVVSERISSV
Briefly: In vitro binding affinity for 5-HT2C receptor (3H-mesulergine radioligand binding). The following applies: choroid plexus of the pig, read-out: 5-HT2C (pIC50) (converted). As for the experimental part:
The interaction of the compounds of Formula (I) with 5-HT2A and 5-HT2C receptors was assessed in in vitro radioligand binding experiments. In general, a low concentration of a radioligand with a high binding affinity for the receptor is incubated with a sample of a tissue preparation enriched in a particular receptor (1 to 5 mg tissue) in a buffered medium (0.2 to 5 ml). During the incubation, the radioligands bind to the receptor. When equilibrium of binding is reached, the receptor bound radioactivity is separated from the non-bound radioactivity, and the receptor bound activity is counted. The interaction of the test compounds with the receptors is assessed in competition binding experiments. Various concentrations of the test compound are added to the incubation mixture containing the tissue preparation and the radioligand. Binding of the radioligand will be inhibited by the test compound in proportion to its binding affinity and its concentration. The radioligand used for 5-HT2A binding affinity is ^3H-ketanserin and the tissue used is the frontal cortex of the rat. The radioligand used for 5-HT2c binding affinity is ^3H-mesulergine and the tissue used is the choroid plexus of the pig.

Test [1] concerns the target T3, human Dopamine D2L receptor (Homo sapiens, UniProt P14416).
T3 construct: expressed in transfected cells; host or cells: CHO cells
Briefly: In vitro binding affinity for human D2L receptor ([3H]Spiperone). The following applies: membranes of human D2L receptor-transfected CHO cells, read-out: D2 (pIC50) (converted). As for the experimental part:
Frozen membranes of human Dopamine D2L receptor-transfected CHO cells were thawed, briefly homogenised using an Ultra-Turrax T25 homogeniser and diluted in Tris-HCl assay buffer containing NaCl, CaCl2, MgCl2, KCl (50, 120, 2, 1, and 5 mM respectively, adjusted to pH 7.7 with HCl) to an appropriate protein concentration optimised for specific and non-specific binding. Radioligand [^3H]Spiperone (NEN, specific activity ˜70 Ci/mmol) was diluted in assay buffer at a concentration of 2 nmol/L. Prepared radioligand (50 μl), along with 50 μl of either the 10% DMSO control, Butaclamol (10^−6 mol/l final concentration), or compound of interest, was then incubated (30 min, 37° C.) with 400 μl of the prepared membrane solution. Membrane-bound activity was filtered through a Packard Filtermate harvester onto GF/B Unifilterplates and washed with ice-cold Tris-HCl buffer (50 mM; pH 7.7; 6×0.5 ml). Filters were allowed to dry before adding scintillation fluid and counting in a Topcount scintillation counter. Percentage specific bound and competition binding curves were calculated using S-Plus software (Insightful).

A further test deals with T4, NET (Rattus norvegicus, UniProt Q63380).
T4 construct: Cortex from rat brain was collected and homogenised; from tissue; host or cells: rat brain cortex
T4 sequence (Q63380 1-617): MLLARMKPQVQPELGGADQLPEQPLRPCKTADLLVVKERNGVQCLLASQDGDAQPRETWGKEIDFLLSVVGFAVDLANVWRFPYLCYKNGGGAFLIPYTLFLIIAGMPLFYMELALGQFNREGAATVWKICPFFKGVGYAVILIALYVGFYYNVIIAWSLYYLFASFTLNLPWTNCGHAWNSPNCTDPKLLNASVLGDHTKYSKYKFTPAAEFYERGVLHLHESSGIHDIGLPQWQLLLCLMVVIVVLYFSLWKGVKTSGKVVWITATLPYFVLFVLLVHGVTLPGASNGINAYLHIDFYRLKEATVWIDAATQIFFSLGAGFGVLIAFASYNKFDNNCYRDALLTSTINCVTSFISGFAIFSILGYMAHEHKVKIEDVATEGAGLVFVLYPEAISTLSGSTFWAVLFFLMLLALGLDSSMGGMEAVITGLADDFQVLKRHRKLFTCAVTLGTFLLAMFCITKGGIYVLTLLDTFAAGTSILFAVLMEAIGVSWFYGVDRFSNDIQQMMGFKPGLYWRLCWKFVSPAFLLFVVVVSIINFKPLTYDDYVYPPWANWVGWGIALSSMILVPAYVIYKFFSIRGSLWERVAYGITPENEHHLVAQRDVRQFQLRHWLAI
Briefly: In vitro determination of NET reuptake inhibition ([3H]Nixosetine binding). The following applies: rat brain cortex membranes, read-out: NET-inhibition (pIC50) (converted). The procedure:
Cortex from rat brain was collected and homogenised using an Ultra-Turrax T25 and a Dual homogeniser in ice-cold homogenising buffer containing Tris, NaCl and KCl (50 mM, 120 mM and 5 mM, respectively, pH 7.4) prior to dilution to an appropriate protein concentration optimised for specific and non-specific binding. […] Membrane-bound activity was detected by filtration through a Packard Filtermate harvester onto GF/B Unifilterplates, washed with ice-cold Tris-HCl buffer, containing NaCl and KCl (50 mM, 120 mM and 4 mM; pH 7.4; 6×0.5 ml). Filters were allowed to dry for 24 h before adding scintillation fluid. Scintillation fluid was allowed to saturate filters for 24 h before counting in a Topcount scintillation counter. Percentage specific bound and competition binding curves were calculated using S-Plus software (Insightful).

T1 sequence (P14842 whole entry): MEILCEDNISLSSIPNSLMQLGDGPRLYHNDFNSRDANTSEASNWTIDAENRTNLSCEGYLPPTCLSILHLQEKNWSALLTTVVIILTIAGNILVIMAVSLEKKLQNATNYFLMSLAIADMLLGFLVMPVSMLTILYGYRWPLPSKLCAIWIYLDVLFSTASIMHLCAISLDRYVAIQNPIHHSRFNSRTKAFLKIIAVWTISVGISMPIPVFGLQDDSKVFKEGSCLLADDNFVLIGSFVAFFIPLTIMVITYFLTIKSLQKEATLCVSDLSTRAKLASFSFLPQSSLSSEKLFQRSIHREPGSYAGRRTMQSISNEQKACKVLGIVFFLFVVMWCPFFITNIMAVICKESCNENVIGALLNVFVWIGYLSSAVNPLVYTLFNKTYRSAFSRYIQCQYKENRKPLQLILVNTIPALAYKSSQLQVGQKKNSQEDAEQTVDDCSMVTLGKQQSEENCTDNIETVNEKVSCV
T3 sequence (P14416 whole entry): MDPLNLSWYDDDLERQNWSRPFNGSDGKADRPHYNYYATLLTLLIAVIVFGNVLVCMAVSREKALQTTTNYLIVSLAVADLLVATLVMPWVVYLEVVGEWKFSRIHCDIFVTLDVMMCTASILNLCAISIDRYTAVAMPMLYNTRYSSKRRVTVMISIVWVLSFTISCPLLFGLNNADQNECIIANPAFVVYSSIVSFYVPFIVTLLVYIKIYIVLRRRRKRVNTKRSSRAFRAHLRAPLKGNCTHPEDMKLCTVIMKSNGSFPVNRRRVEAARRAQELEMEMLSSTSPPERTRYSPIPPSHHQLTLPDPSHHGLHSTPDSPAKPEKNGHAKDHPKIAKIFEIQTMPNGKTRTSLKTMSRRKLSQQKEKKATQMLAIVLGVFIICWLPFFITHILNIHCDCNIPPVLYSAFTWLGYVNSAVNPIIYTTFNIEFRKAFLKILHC

Turning to `CNCC1CC2c3ccccc3Cc3sccc3C2O1` (centres unmarked) [Compound 8], the IC50 is above 10000 nM at 5-HT2A receptors, 63.1 nM at 5-HT2C receptors, 3160 nM in test [1] and 1000 nM on NET.

On to `OCCC1CCN(CC2CC3c4ccccc4Sc4sccc4C3O2)CC1` (centres unmarked) [Compound 11], for which the IC50 at 5-HT2A receptors is 3.16 nM; at 5-HT2C receptors it was 39.8 nM; in test [1], 6.31 nM; at NET, 7940 nM.

`CN(C)CC1CC2c3ccccc3Sc3sccc3C2O1` (centres unmarked) [Compound 9]: the IC50 on 5-HT2A receptors was 15.8 nM; at 5-HT2C receptors it was 25.1 nM; in test [1], 398 nM; at NET, 316 nM.

Consider `CNCC1CC2c3ccccc3Cc3sccc3C2O1` (centres unmarked) [Compound 7], for which the IC50 is 251 nM on 5-HT2A receptors, 20 nM at 5-HT2C receptors, 3160 nM in test [1] and 2510 nM at NET.

`OCCN1CCN(C[C@H]2C[C@@H]3c4ccccc4Sc4sccc4[C@H]3O2)CC1` (relative stereo) [Compound 15]: the IC50 on 5-HT2A receptors is 200 nM; on 5-HT2C receptors, 251 nM; in test [1] it was 251 nM; on NET it was 2510 nM.

For `CN(C)C1CCN(C[C@H]2C[C@@H]3c4ccccc4Sc4sccc4C3O2)C1` (relative stereo) [Compound 27], the IC50 at 5-HT2C receptors was 50.1 nM; in test [1], 398 nM; at NET it was above 10000 nM.

In the case of `CN(C)C[C@H]1C[C@@H]2c3ccccc3Sc3sc(CO)cc3[C@H]2O1` (racemic) [Compound 5], the IC50 on 5-HT2C receptors is 20 nM; in test [1] it was 200 nM; on NET, 398 nM.

In the case of `CNCC1CC2c3ccccc3Sc3sccc3C2O1` (single isomer, unassigned) [Compound 31], the IC50 is 27.5 nM on 5-HT2C receptors, 1260 nM in test [1] and 1000 nM on NET.

For `CN(C)C[C@@H]1C[C@@H]2c3ccccc3Sc3sccc3[C@H]2O1` [Compound 2], the IC50 is below 10 nM on 5-HT2A receptors, 7.94 nM at 5-HT2C receptors, 200 nM in test [1] and 63.1 nM on NET.

With `CCOC(=O)c1cc2c(s1)Sc1ccccc1C1CC(CN(C)C)OC21` (centres unmarked) [Compound 34], the IC50 on 5-HT2A receptors is 158 nM; on 5-HT2C receptors, 316 nM; in test [1], 3980 nM; at NET, 2510 nM.

Turning to `CNCC1CC2c3ccccc3N(Cc3ccccc3)c3ncccc3C2O1` (mixture of isomers) [Compound 37], the IC50 at 5-HT2C receptors is 100 nM; in test [1], 1580 nM; on NET, 1260 nM.

On to `CN(CCO)C[C@H]1C[C@H]2c3ccccc3Sc3sccc3[C@@H]2O1` (relative stereo) [Compound 10], for which the IC50 on 5-HT2A receptors was 12.6 nM; on 5-HT2C receptors, 20 nM; in test [1] it was 200 nM; at NET it was 200 nM.

Regarding `COC(=O)c1cc2c(s1)Sc1ccccc1[C@H]1C[C@H](CN(C)C)O[C@H]21` [Compound 4], the IC50 on 5-HT2C receptors is 158 nM; in test [1] it was 3980 nM; at NET it was 631 nM.

As to `c1ccc2c(c1)Sc1sccc1[C@H]1O[C@@H](CN3CCC4(CC3)OCCO4)C[C@H]21` (relative stereo) [Compound 17], the IC50 is 39.8 nM at 5-HT2A receptors, 100 nM on 5-HT2C receptors, 158 nM in test [1] and above 10000 nM on NET.

In the case of `CN(C)CC1CC2c3ccccc3Cc3ccsc3C2O1` (centres unmarked) [Compound 35], the IC50 is 6.31 nM at 5-HT2A receptors, 15.8 nM on 5-HT2C receptors, 794 nM in test [1] and 501 nM on NET.

Regarding `CNC[C@H]1C[C@@H]2c3ccccc3Sc3sccc3[C@H]2O1` (racemic) [Compound 32], the IC50 in test [1] is 2000 nM; on NET, 39.8 nM.

Regarding `CNC[C@H]1C[C@H]2c3ccccc3Sc3sccc3[C@@H]2O1` (relative stereo) [Compound 21], the IC50 was below 10 nM at 5-HT2A receptors, 3.98 nM on 5-HT2C receptors, 501 nM in test [1] and 126 nM at NET.

`CN(C)C1CCN(C[C@H]2C[C@H]3c4ccccc4Sc4sccc4[C@@H]3O2)C1` (relative stereo) [Compound 29]: the IC50 on 5-HT2C receptors is 251 nM; in test [1] it was 794 nM; on NET it was above 10000 nM.

Turning to `OC1CCN(C[C@H]2C[C@@H]3c4ccccc4Sc4sccc4[C@H]3O2)C1` (relative stereo) [Compound 16], the IC50 on 5-HT2A receptors was 20 nM; on 5-HT2C receptors, 15.8 nM; in test [1], 158 nM; at NET it was 3160 nM.

Consider `OCCN1CCN(C[C@H]2C[C@H]3c4ccccc4Sc4sccc4[C@@H]3O2)CC1` (relative stereo) [Compound 12], for which the IC50 on 5-HT2A receptors was 12.6 nM; at 5-HT2C receptors, 251 nM; in test [1], 31.6 nM; on NET it was above 10000 nM.

In the case of `CN(CCO)C[C@H]1C[C@@H]2c3ccccc3Sc3sccc3[C@H]2O1` (relative stereo) [Compound 18], the IC50 was 39.8 nM at 5-HT2A receptors, 39.8 nM on 5-HT2C receptors and 31.6 nM at NET.

On to `CNCC1CC2c3ccccc3N(Cc3ccccc3)c3ncccc3C2O1` (centres unmarked) [Compound 36], for which the IC50 was 631 nM at 5-HT2C receptors, 6310 nM in test [1] and 5010 nM at NET.

For the compound `CNCC1CC2c3ccccc3Cc3sccc3C2O1` (centres unmarked) [Compound 6], the IC50 at 5-HT2A receptors was 39.8 nM; on 5-HT2C receptors it was 39.8 nM; in test [1] it was 2510 nM; on NET, 2000 nM.

Take `OC1CCN(C[C@H]2C[C@H]3c4ccccc4Sc4sccc4[C@@H]3O2)C1` (relative stereo) [Compound 23]: the IC50 at 5-HT2A receptors is below 10 nM; at 5-HT2C receptors, 3.98 nM; in test [1], 251 nM; on NET, 3160 nM.

In the case of `c1ccc2c(c1)Sc1sccc1[C@@H]1O[C@@H](CN3CCC4(CC3)OCCO4)C[C@@H]21` (relative stereo) [Compound 13], the IC50 at 5-HT2A receptors is 5.01 nM; on 5-HT2C receptors, 100 nM; in test [1], 20 nM; on NET, above 10000 nM.

For the compound `CN(C)CC1CC2c3ccccc3Cc3sccc3C2O1` (centres unmarked) [Compound 33], the IC50 on 5-HT2A receptors was 100 nM; at 5-HT2C receptors it was 50.1 nM; in test [1] it was 794 nM; on NET, 1000 nM.

`CNC[C@H]1C[C@@H]2c3ccccc3Sc3sccc3[C@H]2O1` (racemic) [Compound 20]: the IC50 at 5-HT2A receptors is 79.4 nM; on 5-HT2C receptors, 50.1 nM; in test [1] it was 1260 nM; on NET, 63.1 nM.
